Values quoted from earlier work as cited in patent US10300101B2, “Methods and compositions for enhancing or maintaining fertility” (Quality IP Holdings, LLC, priority 2012, dated 2019).

Assays:
[1] = tested on: hGH levels
[2] = tested on: hGH levels; details: subcutaneous injection of 0.06 IU in hGH deficient subjects

## N=C(N)NCCC[C@H](N)C(=O)O [arginine]
[1]; 30 g intravenous, in males
  elevation of serum hGH levels: 8.6 fold
[1]; intravenous infusion of 183 mg/kg body weight in females
  increase in hGH levels: > 20 fold

## hGH: human growth hormone given by subcutaneous injection to hGH deficient subjects
[2]
  mean levels of hGH reached: 0.4 ng/mL
